From BindingDB's records for patent US20240376090 (Arena Pharmaceuticals, 2024) come the findings set out here.

The assay has as its target 5-hydroxytryptamine receptor 2A (Homo sapiens, UniProt P28223). Description: Radioligand Binding Assay Protocol. On the procedure:
Competition binding experiments consisted of addition of 5 μL of serially diluted test compound, 50 μL of radioligand stock diluted in Assay Buffer (20 mM HEPES, pH 7.4, 10 mM MgCl2), and 145 μL of diluted membrane expressing the receptor of interest to 96-well microtiter plates, which were then incubated for one hour at room temperature. Assay incubations were terminated by rapid filtration through Perkin Elmer GF/C filtration plates under vacuum pressure using a 96-well Packard filtration apparatus, followed by washing the filter plates several times with ice cold Assay Buffer. Plates were then dried at 45° C. for a minimum of four hours. Finally, 25 μL of BetaScint scintillation cocktail was added to each well and the plates were counted in a Packard TopCount scintillation counter. In each competition study, test compounds were assayed at 10 concentrations with three replicates at each test concentration.

Sequence of 5-hydroxytryptamine receptor 2A (P28223 whole entry): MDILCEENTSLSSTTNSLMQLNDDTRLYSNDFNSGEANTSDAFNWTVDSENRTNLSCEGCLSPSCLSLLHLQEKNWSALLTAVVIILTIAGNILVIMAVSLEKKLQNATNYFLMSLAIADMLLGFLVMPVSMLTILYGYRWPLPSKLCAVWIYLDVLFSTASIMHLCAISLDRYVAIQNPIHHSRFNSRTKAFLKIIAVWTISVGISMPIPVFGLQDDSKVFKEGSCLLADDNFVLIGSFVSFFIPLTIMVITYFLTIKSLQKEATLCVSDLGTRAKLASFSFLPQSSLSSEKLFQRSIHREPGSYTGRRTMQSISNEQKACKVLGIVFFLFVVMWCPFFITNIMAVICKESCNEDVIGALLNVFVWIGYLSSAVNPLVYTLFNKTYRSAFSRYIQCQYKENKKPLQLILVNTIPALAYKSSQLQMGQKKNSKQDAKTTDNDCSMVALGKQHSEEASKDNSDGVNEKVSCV

Regarding `CC/C(=C(/C)ON)c1cc(NC(=O)C[C@H]2CCOC2)ccc1OC[C@H]1CCCCN1` [US20240376090, Compound 202], the Ki (in general, the dissociation constant of the complex between target and ligand, obtained from inhibition or displacement) was found to be 9.81 nM.
